The values below come from US4299836A, “Novel ergol-8-ene and ergolin compounds and process for preparing same” (Richter Gedeon Vegyeszeti Gyar Rt., priority 1979, dated 1981).

The nature of data set [1]: hypotensive activity in anesthetized cats. Format: in vivo. Here is the method: The measurements were performed in cats anesthetized with 30 mg/kg of Pentothal (5-ethyl-5-(1-methylbutyl)-2-thiobarbituric acid sodium salt). The left femoral artery was cannulated; the arterial blood pressure was measured by means of Statham P 23 pressure transducer and registrated by a Hellige polygraph. The test compounds were injected into the right femoral vein. (Method: Mc Leod L. J., in: Pharmacological Experiments on Intact Preparations, E. S. Livingstone, Edinburgh and London, 1970, pp. 65-66.)

For data set [2], the target named is T1, serotonine receptor (Rattus norvegicus, UniProt P14842). As to the kind of experiment: in vivo. Format: in vivo. Also on record: For the in vivo studies the rat paw-oedema test was applied; from tissue; host or cells: live rat, paw. The conditions noted are these: for ED50: read-out: In vivo test ED50, 50% inhibition of serotonine induced oedema.
T1 sequence (P14842 whole entry): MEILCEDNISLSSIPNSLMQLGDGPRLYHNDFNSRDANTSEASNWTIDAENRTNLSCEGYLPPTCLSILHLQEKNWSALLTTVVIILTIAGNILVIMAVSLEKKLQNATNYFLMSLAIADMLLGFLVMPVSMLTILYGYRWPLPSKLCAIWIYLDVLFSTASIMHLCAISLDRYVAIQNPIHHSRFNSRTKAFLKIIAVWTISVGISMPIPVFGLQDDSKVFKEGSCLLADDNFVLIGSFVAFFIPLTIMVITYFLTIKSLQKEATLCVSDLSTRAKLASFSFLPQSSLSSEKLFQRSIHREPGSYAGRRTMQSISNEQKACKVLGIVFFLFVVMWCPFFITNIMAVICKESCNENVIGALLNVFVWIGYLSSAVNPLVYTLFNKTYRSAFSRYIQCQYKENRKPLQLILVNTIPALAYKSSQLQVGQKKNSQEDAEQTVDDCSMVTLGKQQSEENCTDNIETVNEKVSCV
Data set [3] addresses T1, serotonine receptor. Also on record: The in vitro antiserotonine activity was determined in rat uterine horn preparation; from tissue; host or cells: rat uterine horn.
In data set [4] the test system is reserpine-induced hypotermy. As to the kind of experiment: antagonism of reserpine-induced hypotermy in mice (antidepressant activity). Format: in vivo. To be noted: for antidepressant efficacy/potency compared with Imipramine: mouse, in vivo. The method, then:
The antidepressant activity was assessed by measuring the antagonism of reserpine-induced hypotermy in mice. The change in body temperature (Δt) was detected as compared to the control animals (B. M. Askew, Life Sci. 10, 725 /1963/). The acute toxicity data /LD50 / were determined on mice; the evaluation was performed 24 hours after the administration of the compounds (J. T. Litchfield and F. Wilcoxon, J. Pharmacol. exp. Ther. 96, 99 /1949/).

Data set [5] in a line: acute toxicity (LD50) in mice. The conditions noted are these: mouse, in vivo, evaluated 24 hours after administration.
Data set [6] has as its target dopamine receptor. As to the kind of experiment: dopamine receptor stimulant activity in vitro, electrically stimulated mouse vas deferens preparation. To be noted: for IC50: electrically stimulated mouse vas deferens, read-out: In vitro test Mouse vas deferens ID50. Here is the method: The dopamine receptor stimulant activities in vitro were determined on electrically stimulated mouse vas deferens preparation (J. Hughes et al., Brit. J. Pharmacol. 53, 371-381 /1975/).

The test system of data set [7] is dopamine receptor. As to the kind of experiment: antagonism of narcosis-potentiating effect of Haloperidol in rats. The data set is classed as in vivo. The method, then:
The in vivo measurements were performed on rats. The antagonism of narcosis-(Hexobarbital Na, 50 mg/kg i.v.)-potentiating effect of Haloperidol (5 mg/kg i.p.) was determined according to Borsy et al. (Acta Physiol. 27, 65-80 /1965/).

The nature of data set [8]: oral blood pressure lowering in awake spontaneously hypertensive rats. The conditions noted are these: 1.0 to 2.5 mg/kg orally. Format: in vivo. An excerpt:
A group of the new compounds according to the invention exerts hypotensive effect on anesthetized animals in low dosages. […] The hypotensive effect of the compounds is accompanied by bradycardia; they inhibit the vasomotor reflexes acting both at central and peripheral target structures. The mechanism of hypotensive effect is different in certain aspects from that of the hydrogenated ergot alkaloids; namely, the new derivatives have no or only negligible adrenolytic activity. Thus, the hypotensive effect is mainly due to an action exerted on the vasomotor center. These derivatives lower the blood pressure also in hypertensive animals upon oral administration. […] The compounds according to the invention exert powerful hypotensive action also in cats.

Counter-ions that a name gives are not always drawn. Like-named read-outs stand apart in the source and are kept apart here.

Consider `CN1CC(CN(CCN=[N+]=[N-])S(C)(=O)=O)CC2c3cccc4c3c(c(Br)n4C)CC21` (centres unmarked) [Example 11, 2-bromo-1,6-dimethyl-8-[(N-methanesulfonyl, N-azidoethyl)-aminomethyl]-ergoline tartarate], for which the Duration of action in data set [1] (0.25 mg/kg i.v.) and in data set [1] (0.5 mg/kg i.v.) was 2 h throughout. The figures for the ED50 in data set [2] (po) and in data set [2] (sc) were 2 mg/kg and 0.3 mg/kg, respectively. The molecule also had an IC50 in data set [3] of 101 nM.
Turning to `CN1CC(CN(CCOS(C)(=O)=O)S(C)(=O)=O)=CC2c3cccc4[nH]cc(c34)CC21` (centres unmarked) [Example 1, 6-Methyl-8-[(N-methanesulfonyl, N-methanesulfonyloxyethyl)-aminomethyl]-ergol-8-ene hydrogen maleate], the “antidepressant efficacy/potency compared with Imipramine” value in data set [4] is on record as “equal to”. For the same molecule, the LD50 at 24 h in data set [5] (ip) and in data set [5] (po) was 100 mg/kg each time. Also, the Duration of action in data set [1] (0.5 mg/kg i.v.) lay in the range of 1.5 to 2 h.
For `CN1C[C@H](C(=O)N[C@]2(C)O[C@@]3(O)[C@@H]4CCCN4C(=O)[C@H](Cc4ccccc4)N3C2=O)C[C@@H]2c3cccc4[nH]cc(c34)C[C@H]21` [Dihydroergotamine, reference compound], in data set [1] (0.2 mg/kg i.v.), the Duration of action came to 0.5 h.
Consider `CN1CC(CN(CCOS(C)(=O)=O)S(C)(=O)=O)CC2c3cccc4c3c(cn4C)CC21` (centres unmarked) [Example 9, 1,6-dimethyl-8-[(N-methanesulfonyl, N-methanesulfonyloxy-ethyl)-aminomethyl]-ergoline hydrogen maleate], for which the Duration of action in data set [1] (0.5 mg/kg i.v.) is 1 h. Moreover, the median effective dose (ED50) in data set [2] (po) was 1 mg/kg; in data set [2] (sc), 0.082 mg/kg. This molecule also showed an IC50 in data set [3] of 106 nM.
With `CN1CC(CN(CCN=[N+]=[N-])S(C)(=O)=O)=CC2c3cccc4c3c(cn4C)CC21` (centres unmarked) [Example 4, 1,6-Dimethyl-8-[(N-methanesulfonyl, N-azidoethyl/aminomethyl]-ergol-8-ene tartarate], the Duration of action was 1.5 h in data set [1] (0.1 mg/kg i.v.) and 2 h in data set [1] (0.5 mg/kg i.v.). Also, the ED50 in data set [2] (po) came out at 3.7 mg/kg; in data set [2] (sc), 0.22 mg/kg. This molecule also gave an IC50 in data set [3] of 1.21 nM.
`CN1CC(CN(CCN=[N+]=[N-])S(C)(=O)=O)=CC2c3cccc4[nH]cc(c34)CC21` (centres unmarked) [Example 2, 6-Methyl-8-[(N-methanesulfonyl, N-azidoethyl)-aminomethyl]-ergol-8-ene hydrogen maleate]: the “Antidepressant activity, Δt (change in body temperature vs control)” value in data set [4] (10 mg/kg p.o., reserpine-induced hypotermy, mice) was “+6.5 °C”. The “antidepressant efficacy/potency compared with Imipramine” value in data set [4] is listed as “higher than that of Imipramine”. The LD50 at 24 h in data set [5] (ip) and in data set [5] (po) was 100 mg/kg in each case. The IC50 in data set [6] stood at 50 nM. The “dopamine stimulant efficacy compared with Bromocryptine in vitro” value in data set [6] (in vitro) was “close to that of Bromocryptine”. The “Antagonism of Haloperidol effect in rats, Inhibition” value in data set [7] (3.0 mg/kg s.c.) is on record as 68.7%; in data set [7] (10.0 mg/kg p.o.), 38.9%; in data set [7] (10.0 mg/kg s.c.), 92.2%; in data set [7] (30.0 mg/kg p.o.) it was 48.2%. For the same molecule, in data set [7] (in vivo), the “dopamine stimulant potency compared with Bromocryptine in vivo” value is recorded as “higher than that of the reference substance”. Besides, the “pharmacodynamic effects upon oral administration (in words)” value in data set [7] (oral) is “could also be detected upon oral administration”. Besides, the Duration of action in data set [1] (0.1 mg/kg i.v.) and in data set [1] (0.5 mg/kg i.v.) was 2 h in each case. Moreover, the “blood pressure lowering (in words)” value in data set [8] is “lowered the blood pressure for several hours”.
Regarding `CC(C)C[C@H]1C(=O)N2CCC[C@H]2[C@]2(O)O[C@](NC(=O)[C@@H]3C=C4c5cccc6[nH]c(Br)c(c56)C[C@H]4N(C)C3)(C(C)C)C(=O)N12` [Bromocryptine, 2-bromo-α-ergocryptine, reference compound], in data set [6], the IC50 came out at 20 nM. Also, the “Antagonism of Haloperidol effect in rats, Inhibition” value in data set [7] (10.0 mg/kg p.o.) is recorded as 25.9%; in data set [7] (10.0 mg/kg s.c.), 26.2%; in data set [7] (30.0 mg/kg p.o.) it was 54.8%; in data set [7] (30.0 mg/kg s.c.), 34.2%.
In the case of `CN1CC(CN(CCN=[N+]=[N-])S(C)(=O)=O)CC2c3cccc4c3c(cn4C)CC21` (centres unmarked) [Example 10, 1,6-dimethyl-8-[(N-methanesulfonyl, N-azidoethyl)-aminomethyl]-ergoline hydrogen maleate], in data set [1] (0.5 mg/kg i.v.), the Duration of action is 1.5 h. Further, the “potency compared with Methysergide upon oral administration” value in data set [2] (in vivo, po) is on record as “more potent than Methysergide”. The ED50 in data set [2] (po) stood at 0.47 mg/kg; in data set [2] (sc), 0.042 mg/kg. Further, the IC50 in data set [3] is 2.4 nM.
For `CN1CC(CN(CCN=[N+]=[N-])S(C)(=O)=O)=CC2c3cccc4[nH]c(Br)c(c34)CC21` (centres unmarked) [Example 3, 2-Bromo-6-methyl-8-[(N-methanesulfonyl, N-azidoethyl/aminomethyl]-ergol-8-ene hydrogen maleate], the Duration of action in data set [1] (0.1 mg/kg i.v.) and in data set [1] (0.5 mg/kg i.v.) was 1.5 h each time.
In data set [1] (0.5 mg/kg i.v.), `CN1CC(CN(CCN=[N+]=[N-])S(C)(=O)=O)CC2c3cccc4[nH]cc(c34)CC21` (centres unmarked) [Example 7, 6-Methyl-8-[(N-methanesulfonyl, N-azidoethyl)-aminomethyl]-ergoline hydrogen maleate] came in with a Duration of action of 1 h. Also, the ED50 was 1.7 mg/kg in data set [2] (po) and 0.29 mg/kg in data set [2] (sc). Moreover, the IC50 in data set [3] is 2.48 nM.
